biological target: T1, c-kit autophosphorylation (Phospho c-Kit Tyr721) in HMC 1.1 (exon 11/13) cells, V654A (Homo sapiens, UniProt P10721, V560G/V654A); experiment: pKIT Meso Scale Discovery (MSD) assay, inhibition of autophosphorylation of KIT, HMC1.1_V654A; assay type: cell-based; conditions: Table 1, cell line not named for Table 1, b1056 names pKIT HMC1.1_V654A, read-out: Code (IC50 for inhibition of autophosphorylation of KIT, pKIT MSD assay)
T1 construct: endogenous in cells; host or cells: HMC 1.1 (exon 11/13) cells
Summary of the method: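 HMC1.1 cells were serum-starved for 4 h in serum-free, iron-free, phenol red-free IMDM, then treated with compound in dose-response for 90 min at 37 °C. Staurosporine and DMSO served as controls. Lysates were analysed by MSD electrochemiluminescence immunoassay for phospho-c-Kit Tyr721, and % inhibition of autophosphorylation was derived.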

T1 sequence (P10721 26-976 V560G/V654A): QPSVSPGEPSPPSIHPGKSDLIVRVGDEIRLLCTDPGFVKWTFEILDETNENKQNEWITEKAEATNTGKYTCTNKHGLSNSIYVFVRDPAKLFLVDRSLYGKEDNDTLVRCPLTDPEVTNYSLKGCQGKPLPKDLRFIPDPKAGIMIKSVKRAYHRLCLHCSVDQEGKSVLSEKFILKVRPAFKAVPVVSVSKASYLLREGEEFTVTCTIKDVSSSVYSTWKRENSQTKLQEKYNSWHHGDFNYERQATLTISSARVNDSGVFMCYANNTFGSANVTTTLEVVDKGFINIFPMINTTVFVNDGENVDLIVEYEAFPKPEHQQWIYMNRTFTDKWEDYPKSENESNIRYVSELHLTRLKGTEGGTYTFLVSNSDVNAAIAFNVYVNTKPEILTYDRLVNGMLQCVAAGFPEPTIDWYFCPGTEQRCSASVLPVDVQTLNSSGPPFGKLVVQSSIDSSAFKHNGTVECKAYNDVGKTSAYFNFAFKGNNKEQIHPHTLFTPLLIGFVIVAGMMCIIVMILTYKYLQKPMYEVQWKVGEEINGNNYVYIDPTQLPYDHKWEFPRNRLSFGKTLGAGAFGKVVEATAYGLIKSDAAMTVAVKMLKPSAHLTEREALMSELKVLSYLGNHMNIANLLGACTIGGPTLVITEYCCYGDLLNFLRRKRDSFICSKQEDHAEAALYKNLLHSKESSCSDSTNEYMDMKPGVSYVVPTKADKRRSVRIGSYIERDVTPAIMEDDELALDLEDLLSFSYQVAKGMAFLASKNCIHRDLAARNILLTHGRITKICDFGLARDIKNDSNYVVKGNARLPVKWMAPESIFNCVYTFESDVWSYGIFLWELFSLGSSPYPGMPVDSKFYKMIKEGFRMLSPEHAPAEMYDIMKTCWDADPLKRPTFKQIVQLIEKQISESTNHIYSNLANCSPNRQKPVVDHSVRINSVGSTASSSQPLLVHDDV

| Structure (SMILES) | IC50 [nM] |
| --- | --- |
| COc1cc(Nc2cc(N)nc(C(F)F)n2)ncc1-c1cnn(CC(C)O)c1 (centres unmarked) [Compound 85, 1-(4-(6-((6-amino-2-(difluoromethyl)pyrimidin-4-yl)amino)-4-methoxypyridin-3-yl)-1H-pyrazol-1-yl)propan-2-ol] | 10 to 40 |
| CC(O)Cn1cc(-c2cnc(Nc3cc(N)nc(C(F)F)n3)cc2OC(F)F)cn1 (centres unmarked) [Compound 155, 1-(4-(6-((6-amino-2-(difluoromethyl)pyrimidin-4-yl)amino)-4-(difluoromethoxy)pyridin-3-yl)-1H-pyrazol-1-yl)propan-2-ol] | < 10 |
| CCNc1cc(Nc2cc(N)nc(CF)n2)ncc1C(=O)NC12CC(CO)(C1)C2 [Compound 96, 6-((6-amino-2-(fluoromethyl)pyrimidin-4-yl)amino)-4-(ethylamino)-N-(3-(hydroxymethyl)bicyclo[1.1.1]pentan-1-yl)nicotinamide] | 10 to 40 |
| CNC(=O)c1cnc(Nc2cc(N)nc([C@@H](C)F)n2)cc1NC(C)C [Compound 20, (R)-6-((6-amino-2-(1-fluoroethyl)pyrimidin-4-yl)amino)-4-(isopropylamino)-N-methylnicotinamide] | > 40 |
| Cn1cc(-c2cnc(Nc3cc(N)nc(C(F)F)n3)cc2OC2COC2)cn1 [Compound 77, 2-(difluoromethyl)-N4-(5-(1-methyl-1H-pyrazol-4-yl)-4-(oxetan-3-yloxy)pyridin-2-yl)pyrimidine-4,6-diamine] | < 10 |
